The results in this text go back to patent publication US9283222B2 (priority 2006, dated 2016).

By Ki is commonly meant a measure of affinity in units of concentration, obtained from inhibition or displacement.

The target of the experiment is Recombinant Human Poly(ADP-Ribose) Polymerase (PARP), PARP-1 (Homo sapiens (Human), UniProt P09874). Particulars: read-out: PARP-1 (Ki); Table 1; text calls the values EC50s.
Sequence of Recombinant Human Poly(ADP-Ribose) Polymerase (PARP), PARP-1 (P09874 whole entry): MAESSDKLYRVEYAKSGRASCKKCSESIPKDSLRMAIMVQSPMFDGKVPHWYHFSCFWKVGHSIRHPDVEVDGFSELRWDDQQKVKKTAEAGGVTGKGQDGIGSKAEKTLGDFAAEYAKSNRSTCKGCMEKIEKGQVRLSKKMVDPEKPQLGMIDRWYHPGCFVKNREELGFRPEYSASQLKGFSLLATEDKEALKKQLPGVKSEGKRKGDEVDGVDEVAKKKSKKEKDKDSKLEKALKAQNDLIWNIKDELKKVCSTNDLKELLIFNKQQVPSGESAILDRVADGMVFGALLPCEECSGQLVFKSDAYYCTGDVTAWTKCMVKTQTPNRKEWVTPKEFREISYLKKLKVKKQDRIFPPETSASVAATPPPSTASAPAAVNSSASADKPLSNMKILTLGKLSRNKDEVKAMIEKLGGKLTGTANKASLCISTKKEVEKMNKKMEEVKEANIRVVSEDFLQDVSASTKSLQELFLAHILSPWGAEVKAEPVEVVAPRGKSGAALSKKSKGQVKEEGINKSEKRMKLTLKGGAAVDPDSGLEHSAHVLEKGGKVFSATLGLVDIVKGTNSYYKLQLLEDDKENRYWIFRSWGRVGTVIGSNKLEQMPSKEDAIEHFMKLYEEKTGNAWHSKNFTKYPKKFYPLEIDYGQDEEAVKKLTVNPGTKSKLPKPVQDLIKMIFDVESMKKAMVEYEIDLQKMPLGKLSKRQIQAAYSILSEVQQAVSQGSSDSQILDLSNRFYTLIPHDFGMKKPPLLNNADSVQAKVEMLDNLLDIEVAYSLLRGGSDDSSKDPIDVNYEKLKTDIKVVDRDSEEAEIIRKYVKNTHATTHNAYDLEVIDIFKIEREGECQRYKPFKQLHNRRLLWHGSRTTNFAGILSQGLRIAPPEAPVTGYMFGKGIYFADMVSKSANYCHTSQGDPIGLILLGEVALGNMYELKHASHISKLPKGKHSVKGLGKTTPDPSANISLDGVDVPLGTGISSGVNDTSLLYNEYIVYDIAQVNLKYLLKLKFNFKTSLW
`NC(=O)c1cccc(-c2cc(Cc3n[nH]c(=O)c4c3CCCC4)ccc2F)c1` [Example 252, 2′-fluoro-5′-((4-oxo-3,4,5,6,7,8-hexahydrophthalazin-1-yl)methyl)-1,1′-biphenyl-3-carboxamide]: the Ki was found to be 19 nM.
For `CN(C)C(=O)c1ccc(-c2cc(Cc3n[nH]c(=O)c4c3CCCC4)ccc2F)cc1` [Example 253, 2′-fluoro-N,N-dimethyl-5′-((4-oxo-3,4,5,6,7,8-hexahydrophthalazin-1-yl)methyl)-1,1′-biphenyl-4-carboxamide], the Ki amounted to 229 nM.
In the case of `O=c1[nH]nc(CCc2ccccc2)c2c1CCCC2` [Example 255, 4-(2-phenylethyl)-5,6,7,8-tetrahydrophthalazin-1(2H)-one], the Ki is 335 nM.
For the compound `CC(C)(C)OC(=O)N1CCN(C(=O)OCc2ccccc2)CC1Cc1n[nH]c(=O)c2c1CCCC2` (stereo not drawn) [Example 258, 4-benzyl 1-tert-butyl 2-((4-oxo-3,4,5,6,7,8-hexahydrophthalazin-1-yl)methyl)piperazine-1,4-dicarboxylate], the Ki amounted to 1770 nM.
For the compound `Nc1cccc(CCc2n[nH]c(=O)c3c2CCCC3)c1` [Example 260, 4-(2-(3-aminophenyl)ethyl)-5,6,7,8-tetrahydrophthalazin-1(2H)-one], the Ki worked out at 243 nM.
`O=c1[nH]nc(CC2CNCCN2)c2c1CCCC2` (stereo not drawn) [Example 261, 4-(piperazin-2-ylmethyl)-5,6,7,8-tetrahydrophthalazin-1(2H)-one]: the Ki is 556 nM.
For `O=C1CCCN1c1cccc(CCc2n[nH]c(=O)c3c2CCCC3)c1` [Example 262, 4-(2-(3-(2-oxopyrrolidin-1-yl)phenyl)ethyl)-5,6,7,8-tetrahydrophthalazin-1(2H)-one], the Ki is 304 nM.
Under `O=C(COc1ccccc1)Nc1cccc(CCc2n[nH]c(=O)c3c2CCCC3)c1` [Example 263, N-(3-(2-(4-oxo-3,4,5,6,7,8-hexahydrophthalazin-1-yl)ethyl)phenyl)-2-phenoxyacetamide] stands 144 nM.
Under `O=C(c1cccc(-c2cc(CCc3n[nH]c(=O)c4c3CCCC4)ccc2F)c1)N1CCOCC1` [Example 264, 4-(2-(6-fluoro-3′-(morpholin-4-ylcarbonyl)-1,1′-biphenyl-3-yl)ethyl)-5,6,7,8-tetrahydrophthalazin-1(2H)-one] stands 662 nM.
The figure for `COC(=O)c1cccc(CCc2n[nH]c(=O)c3c2CCCC3)c1` [Example 265, methyl 3-(2-(4-oxo-3,4,5,6,7,8-hexahydrophthalazin-1-yl)ethyl)benzoate] is 58 nM; for `O=C(c1ccc(-c2cc(CCc3n[nH]c(=O)c4c3CCCC4)ccc2F)cc1)N1CCOCC1` [Example 267, 4-(2-(6-fluoro-4′-(morpholin-4-ylcarbonyl)-1,1′-biphenyl-3-yl)ethyl)-5,6,7,8-tetrahydrophthalazin-1(2H)-one] it is 534 nM; for `O=C(c1ccccc1-c1cc(CCc2n[nH]c(=O)c3c2CCCC3)ccc1F)N1CCCC1` [Example 268, 4-(2-(6-fluoro-2′-(pyrrolidin-1-ylcarbonyl)-1,1′-biphenyl-3-yl)ethyl)-5,6,7,8-tetrahydrophthalazin-1(2H)-one] it is 638 nM.
Take `O=C(c1cccc(-c2cc(CCc3n[nH]c(=O)c4c3CCCC4)ccc2F)c1)N1CCCC1` [Example 269, 4-(2-(6-fluoro-3′-(pyrrolidin-1-ylcarbonyl)-1,1′-biphenyl-3-yl)ethyl)-5,6,7,8-tetrahydrophthalazin-1(2H)-one]: the Ki was determined as 1050 nM.
Take `O=C(NC1CC1)c1cccc(-c2cc(CCc3n[nH]c(=O)c4c3CCCC4)ccc2F)c1` [Example 270, N-cyclopropyl-2′-fluoro-5′-(2-(4-oxo-3,4,5,6,7,8-hexahydrophthalazin-1-yl)ethyl)-1,1′-biphenyl-3-carboxamide]: the Ki stood at 487 nM.
For `CN(C)CCNC(=O)c1cccc(-c2cc(CCc3n[nH]c(=O)c4c3CCCC4)ccc2F)c1` [Example 271, N-(2-(dimethylamino)ethyl)-2′-fluoro-5′-(2-(4-oxo-3,4,5,6,7,8-hexahydrophthalazin-1-yl)ethyl)-1,1′-biphenyl-3-carboxamide], the Ki stood at 1140 nM.
`NC(=O)c1cccc(-c2cc(CCc3n[nH]c(=O)c4c3CCCC4)ccc2F)c1` [Example 272, 2′-fluoro-5′-(2-(4-oxo-3,4,5,6,7,8-hexahydrophthalazin-1-yl)ethyl)-1,1′-biphenyl-3-carboxamide]: the Ki is 204 nM.
In the case of `CS(=O)(=O)Nc1cccc(-c2cc(CCc3n[nH]c(=O)c4c3CCCC4)ccc2F)c1` [Example 273, N-(2′-fluoro-5′-(2-(4-oxo-3,4,5,6,7,8-hexahydrophthalazin-1-yl)ethyl)-1,1′-biphenyl-3-yl)methanesulfonamide], the Ki was 257 nM.
The figure for `CC(=O)Nc1cccc(-c2cc(CCc3n[nH]c(=O)c4c3CCCC4)ccc2F)c1` [Example 274, N-(2′-fluoro-5′-(2-(4-oxo-3,4,5,6,7,8-hexahydrophthalazin-1-yl)ethyl)-1,1′-biphenyl-3-yl)acetamide] is 222 nM; for `CC(Cc1n[nH]c(=O)c2c1CCCC2)c1ccc(F)c(-c2cccc(C(=O)N3CCOCC3)c2)c1` (stereo not drawn) [Example 275, 4-(2-(6-fluoro-3′-(morpholin-4-ylcarbonyl)-1,1′-biphenyl-3-yl)propyl)-5,6,7,8-tetrahydrophthalazin-1(2H)-one] it is 471 nM.
Under `CC(Cc1n[nH]c(=O)c2c1CCCC2)c1ccc(F)c(-c2cccc(C(=O)N3CCCC3)c2)c1` (stereo not drawn) [Example 276, 4-(2-(6-fluoro-3′-(pyrrolidin-1-ylcarbonyl)-1,1′-biphenyl-3-yl)propyl)-5,6,7,8-tetrahydrophthalazin-1(2H)-one] stands 943 nM; under `CC(Cc1n[nH]c(=O)c2c1CCCC2)c1ccc(F)c(-c2cccc(C(=O)NC3CC3)c2)c1` (stereo not drawn) [Example 277, N-cyclopropyl-2′-fluoro-5′-(1-methyl-2-(4-oxo-3,4,5,6,7,8-hexahydrophthalazin-1-yl)ethyl)-1,1′-biphenyl-3-carboxamide], 436 nM.
Consider `Nc1cc(Cc2n[nH]c(=O)c3c2CCCC3)ccc1Cl` [Example 278, 4-(3-amino-4-chlorobenzyl)-5,6,7,8-tetrahydrophthalazin-1(2H)-one], for which the Ki was 185 nM.
Regarding `COc1ccc(Cc2n[nH]c(=O)c3c2CCCC3)cc1N` [Example 279, 4-(3-amino-4-methoxybenzyl)-5,6,7,8-tetrahydrophthalazin-1(2H)-one], the Ki worked out at 467 nM.
The figure for `Nc1cc(Cc2n[nH]c(=O)c3c2CCCC3)ccc1O` [Example 280, 4-(3-amino-4-hydroxybenzyl)-5,6,7,8-tetrahydrophthalazin-1(2H)-one] is 303 nM; for `Cc1ccc(Cc2n[nH]c(=O)c3c2CCCC3)cc1N` [Example 281, 4-(3-amino-4-methylbenzyl)-5,6,7,8-tetrahydrophthalazin-1(2H)-one] it is 309 nM; for `CC(Cc1n[nH]c(=O)c2c1CCCC2)c1cccc(-c2cccc(C(=O)NCCN(C)C)c2)c1` (stereo not drawn) [Example 282, N-(2-(dimethylamino)ethyl)-3′-(1-methyl-2-(4-oxo-3,4,5,6,7,8-hexahydrophthalazin-1-yl)ethyl)-1,1′-biphenyl-3-carboxamide] it is 1710 nM.
In the case of `CC(Cc1n[nH]c(=O)c2c1CCCC2)c1cccc(-c2cccc(C(N)=O)c2)c1` (stereo not drawn) [Example 283, 3′-(1-methyl-2-(4-oxo-3,4,5,6,7,8-hexahydrophthalazin-1-yl)ethyl)-1,1′-biphenyl-3-carboxamide], the Ki stood at 442 nM.
The figure for `CC(=O)Nc1cccc(-c2cccc(C(C)Cc3n[nH]c(=O)c4c3CCCC4)c2)c1` (stereo not drawn) [Example 284, N-(3′-(1-methyl-2-(4-oxo-3,4,5,6,7,8-hexahydrophthalazin-1-yl)ethyl)-1,1′-biphenyl-3-yl)acetamide] is 2210 nM; for `CC(=O)Nc1cccc(-c2cccc(C(C)c3n[nH]c(=O)c4c3CCCC4)c2)c1` (stereo not drawn) [Example 286, N-(3′-(1-(4-oxo-3,4,5,6,7,8-hexahydrophthalazin-1-yl)ethyl)-1,1′-biphenyl-3-yl)acetamide] it is 58 nM; for `CC(c1cccc(-c2cccc(C(=O)NCCN(C)C)c2)c1)c1n[nH]c(=O)c2c1CCCC2` (stereo not drawn) [Example 287, N-(2-(dimethylamino)ethyl)-3′-(1-(4-oxo-3,4,5,6,7,8-hexahydrophthalazin-1-yl)ethyl)-1,1′-biphenyl-3-carboxamide] it is 771 nM.
As for `CC(Cc1n[nH]c(=O)c2c1CCCC2)c1cccc(C(=O)O)c1` (stereo not drawn) [Example 288, 3-(1-methyl-2-(4-oxo-3,4,5,6,7,8-hexahydrophthalazin-1-yl)ethyl)benzoic acid], the inhibition constant (Ki) amounted to 431 nM.
Regarding `COc1ccc(C(=O)CCC(=O)Nc2cc(Cc3n[nH]c(=O)c4c3CCCC4)ccc2F)cc1` [Example 289, N-(2-fluoro-5-((4-oxo-3,4,5,6,7,8-hexahydrophthalazin-1-yl)methyl)phenyl)-4-(4-methoxyphenyl)-4-oxobutanamide], the inhibition constant Ki turned out to be 0.7 nM.
As for `CC1=C(C)C(=O)N(c2cc(Cc3n[nH]c(=O)c4c3CCCC4)ccc2F)C1=O` [Example 290, 1-(2-fluoro-5-((4-oxo-3,4,5,6,7,8-hexahydrophthalazin-1-yl)methyl)phenyl)-3,4-dimethyl-1H-pyrrole-2,5-dione], the Ki came to 1 nM.
The figure for `O=C1C2CC2C(=O)N1c1cc(Cc2n[nH]c(=O)c3c2CCCC3)ccc1F` (stereo not drawn) [Example 291, 3-(2-fluoro-5-((4-oxo-3,4,5,6,7,8-hexahydrophthalazin-1-yl)methyl)phenyl)-3-azabicyclo(3.1.0)hexane-2,4-dione] is 0.7 nM; for `O=C(COc1ccccc1)N1CCNC(Cc2n[nH]c(=O)c3c2CCCC3)C1` (stereo not drawn) [Example 292, 4-((4-(phenoxyacetyl)piperazin-2-yl)methyl)-5,6,7,8-tetrahydrophthalazin-1(2H)-one] it is 116 nM; for `O=C(CCC(=O)c1ccccc1)Nc1cccc(CCc2n[nH]c(=O)c3c2CCCC3)c1` [Example 294, 4-oxo-N-(3-(2-(4-oxo-3,4,5,6,7,8-hexahydrophthalazin-1-yl)ethyl)phenyl)-4-phenylbutanamide] it is 204 nM.
